PubChem BioAssay AID1794826

Molecular target: Sodium/myo-inositol cotransporter 2 (Homo sapiens) (UniProt Q8WWX8)
Assay: SLC5A11 myo-inositol cotransport substrate activity, dose response, cell-based, membrane potential dye, HEK-293, SLC5A11 overexpression (AID 1794826)
Conditions: HEK-293 SLC5A11 OE, FLIPR membrane potential dye

Sodium/myo-inositol cotransporter 2 (Homo sapiens), sequence (Q8WWX8 whole entry, looked up): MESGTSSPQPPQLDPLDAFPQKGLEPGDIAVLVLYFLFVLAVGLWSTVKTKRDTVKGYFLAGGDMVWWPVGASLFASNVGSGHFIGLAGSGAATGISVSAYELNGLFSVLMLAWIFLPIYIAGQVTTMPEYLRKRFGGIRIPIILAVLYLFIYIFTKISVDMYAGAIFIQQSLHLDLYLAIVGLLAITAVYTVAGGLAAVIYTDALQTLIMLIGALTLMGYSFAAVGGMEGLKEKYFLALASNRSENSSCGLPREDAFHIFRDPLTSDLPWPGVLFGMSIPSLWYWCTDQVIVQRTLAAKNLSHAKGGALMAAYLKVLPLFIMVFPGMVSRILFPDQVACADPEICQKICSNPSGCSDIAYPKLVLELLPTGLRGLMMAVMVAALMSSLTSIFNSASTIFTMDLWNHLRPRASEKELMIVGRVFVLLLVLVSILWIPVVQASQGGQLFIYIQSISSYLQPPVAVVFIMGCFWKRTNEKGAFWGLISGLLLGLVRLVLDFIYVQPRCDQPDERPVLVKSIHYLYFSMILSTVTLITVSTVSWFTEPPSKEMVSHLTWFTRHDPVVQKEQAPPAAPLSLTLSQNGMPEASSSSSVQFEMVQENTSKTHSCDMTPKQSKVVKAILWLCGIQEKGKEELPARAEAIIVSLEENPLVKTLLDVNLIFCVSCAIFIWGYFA

OC1C(O)C(O)C(O)C(O)C1O (stereo unspecified)
EC50: 104 µM
